Counter-ions that a name gives are not always drawn. Like-named read-outs stand apart in the source and are kept apart here.
What was measured:
[1] = target: T1, human TRPA1 (Homo sapiens, UniProt O75762); assay: FLIPR Ca2+ assay, reduction of L-Menthol activation of TRPA1
Procedure: In order to determine whether TRPA1 is activated, the intracellular calcium ion (Ca^2+) level from transfected cells with the TRPA1 receptor gene was measured. HEK-2 cells stably transfected with human TRPA1 were grown in 15 ml growth medium [high glucose DMEM (Dulbecco's Modification of Eagle's Medium) supplemented with 10% FBS (fetal bovine serum), 100 μg/ml Penicillin/streptomycin, 100 μg/ml G418] in a 75 Cm^2 flask for 3 days at 37° C. in a mammalian cell culture incubator set at 5% CO2. Cells were detached with addition of 10 ml of PBS (phosphate buffered saline) by hand shaking gently and transferred to a 50 ml tube and centrifuged at 850 rpm for 3 minutes to remove PBS. After centrifugation, a pellet of cells was formed in the bottom of the tube separating them from the supernatant solution. […] Fluo-4 is a fluorescent dye used for quantifying cellular Ca^2+ concentrations in the 100 nM to 1 μM range.
The pelleted cells were re-suspended in 10 ml assay buffer and 90 μl aliquots (˜50,000 cells) per well delivered to a 96-well assay plate containing 10 μl of test compounds (1 mM in assay buffer, final concentration 100 μM) or buffer control and incubated at room temperature for 30 minutes. After 30 minutes, the plate was placed into a fluorometric imaging plate reader (FLIPR384 from Molecular Devices) and basal fluorescence recorded (excitation wave length 488 nm and emission wave length 510 nm). Then 20 μl of the molecule being tested as a TRPA1 antagonist was added and fluorescence recorded. For determining the direct effect of test compounds on TRPA1, fluorescence was measured immediately after addition of each compound.
To determine if a compound was an antagonist or a desensitizer the direct effect of a test compound was determined. For determining the direct effect of test compounds on TRPA1 receptor activation, 100 μl aliquots (˜50,000 cells) of cells prepared as described above were delivered to a 96-well assay plate and basal fluorescence recorded as noted above. Then 20 μl of the compound being tested as a TRPA1 activator was added and fluorescence recorded. If any increase in fluorescence over background was noted, then the compound was considered an agonist.

[2] = target: human TRPV1 (Homo sapiens, UniProt Q8NER1); assay: FLIPR Ca2+ assay, reduction of L-Menthol activation of TRPV1; details: for inhibition at 100 µM: read-out: % Reduction of L-Menthol TRPV1 Activation
Procedure: To determine whether TRPV1 was activated, the intracellular calcium ion (Ca^+2) levels from cells transfected with the TRPV1 receptor gene was measured. HEK-239 cells stably transfected with human TRPV1 were grown in 15 ml growth medium [high glucose DMEM (Dulbecco's Modification of Eagle's Medium) supplemented with 10% FBS (fetal bovine serum), 100 g/ml Penicillin/streptomycin, 100 g/ml G418] in a 75 Cm2 flask for 3 days at 33° C. in a mammalian cell culture incubator set at 5% CO2. Cells were detached with addition of 10 ml of PBS (phosphate buffered saline) by hand shaking gently. Cells were transferred to a 50 ml tube and centrifuged at 850 rpm for 3 minutes to remove PBS. After centrifugation, a pellet of cells formed in the bottom of the tube separating them from the supernatant solution. The supernatant was discarded and the cell pellet suspended in 1 ml of fresh growth medium to which 5 μl (12.5 g) of Fluo-4 AM (Molecular Probes, Inc., Eugene, Oreg.) calcium indicator was added and incubated for 30 minutes with gentle shaking.
The pelleted cells were re-suspended in 10 ml assay buffer and 90 μl aliquots (˜50,000 cells) per well delivered to a 96-well assay plate containing 10 μl of test compounds (1 mM in assay buffer, final concentration 100 μM) or buffer control and incubated at room temperature for 30 minutes. After 30 minutes, the plate was placed into a fluorometric imaging plate reader (FLIPR384 from Molecular Devices) and basal fluorescence recorded (excitation wave length 488 nm and emission wave length 510 nm). Then 20 μl of the compound being tested as a TRPV1 receptor activator was added and fluorescence recorded. […] It may be no difference (no effect), or negative (means antagonist or desensitizer) or positive (enhancer, also known as positive allosteric modulator). […] To determine if a compound was an antagonist or a desensitizer, the direct effect of a test compound was determined. For determining the direct effect of test compounds on TRPV1, 100 μl aliquots (˜50,000 cells) of cells prepared as described above were delivered to a 96-well assay plate and basal fluorescence recorded as noted above. Then 20 μl of the compound being tested as a TRPV1 receptor activator was added and fluorescence recorded. If any increase in fluorescence over background was noted, then the compound was considered an agonist. The agonist activity was expressed relative to that observed with a benchmark agonist such as 350 nM Capsaicin for TRPV1.
100 μM of antagonist was tested against 1 mM of L-Menthol to determine the level of reduced TRPV1 receptor activation by L-Menthol. Each antagonist compound was run with 1 mM of L-Menthol as a control and the antagonist activity of each compound was determined by comparing the Ca^2+ levels of the control with the antagonist compound being tested.

[3] = target: T1, human TRPA1; assay: FLIPR Ca2+ assay, reduction of hydrogen peroxide activation of TRPA1; type: cell-based; design: expressed in transfected cells
Procedure: After centrifugation, a pellet of cells was formed in the bottom of the tube separating them from the supernatant solution.
The pelleted cells were re-suspended in 10 ml assay buffer and 90 μl aliquots (˜50,000 cells) per well delivered to a 96-well assay plate containing 10 μl of test compounds ([…]) or buffer control and incubated at room temperature for 30 minutes.

[4] = 100 μM antagonist vs 1 mM L-Menthol
[5] = antagonist 100 μM against 1 mM L-Menthol

Sequence of human TRPV1 (Q8NER1 whole entry): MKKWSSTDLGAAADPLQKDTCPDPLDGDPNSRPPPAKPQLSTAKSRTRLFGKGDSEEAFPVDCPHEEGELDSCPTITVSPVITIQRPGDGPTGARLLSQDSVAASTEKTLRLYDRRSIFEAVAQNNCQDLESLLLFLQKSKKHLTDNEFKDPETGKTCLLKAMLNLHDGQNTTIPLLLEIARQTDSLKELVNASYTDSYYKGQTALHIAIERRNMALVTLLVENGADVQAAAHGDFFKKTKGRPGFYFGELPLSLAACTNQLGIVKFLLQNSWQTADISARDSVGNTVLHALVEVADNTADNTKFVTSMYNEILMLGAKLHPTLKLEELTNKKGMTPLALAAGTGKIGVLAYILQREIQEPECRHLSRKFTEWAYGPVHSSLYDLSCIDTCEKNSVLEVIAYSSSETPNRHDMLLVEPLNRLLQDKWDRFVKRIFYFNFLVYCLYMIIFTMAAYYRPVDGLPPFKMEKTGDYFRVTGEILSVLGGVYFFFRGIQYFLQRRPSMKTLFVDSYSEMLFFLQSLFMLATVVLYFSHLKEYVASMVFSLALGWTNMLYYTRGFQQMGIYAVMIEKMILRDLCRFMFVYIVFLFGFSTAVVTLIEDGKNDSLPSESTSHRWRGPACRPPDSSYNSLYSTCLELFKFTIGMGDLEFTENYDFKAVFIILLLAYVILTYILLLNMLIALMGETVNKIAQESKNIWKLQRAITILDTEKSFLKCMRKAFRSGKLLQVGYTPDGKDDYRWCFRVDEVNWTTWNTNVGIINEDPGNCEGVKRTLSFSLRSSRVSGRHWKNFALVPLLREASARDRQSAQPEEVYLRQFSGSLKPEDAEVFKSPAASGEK
T1 sequence (O75762 whole entry): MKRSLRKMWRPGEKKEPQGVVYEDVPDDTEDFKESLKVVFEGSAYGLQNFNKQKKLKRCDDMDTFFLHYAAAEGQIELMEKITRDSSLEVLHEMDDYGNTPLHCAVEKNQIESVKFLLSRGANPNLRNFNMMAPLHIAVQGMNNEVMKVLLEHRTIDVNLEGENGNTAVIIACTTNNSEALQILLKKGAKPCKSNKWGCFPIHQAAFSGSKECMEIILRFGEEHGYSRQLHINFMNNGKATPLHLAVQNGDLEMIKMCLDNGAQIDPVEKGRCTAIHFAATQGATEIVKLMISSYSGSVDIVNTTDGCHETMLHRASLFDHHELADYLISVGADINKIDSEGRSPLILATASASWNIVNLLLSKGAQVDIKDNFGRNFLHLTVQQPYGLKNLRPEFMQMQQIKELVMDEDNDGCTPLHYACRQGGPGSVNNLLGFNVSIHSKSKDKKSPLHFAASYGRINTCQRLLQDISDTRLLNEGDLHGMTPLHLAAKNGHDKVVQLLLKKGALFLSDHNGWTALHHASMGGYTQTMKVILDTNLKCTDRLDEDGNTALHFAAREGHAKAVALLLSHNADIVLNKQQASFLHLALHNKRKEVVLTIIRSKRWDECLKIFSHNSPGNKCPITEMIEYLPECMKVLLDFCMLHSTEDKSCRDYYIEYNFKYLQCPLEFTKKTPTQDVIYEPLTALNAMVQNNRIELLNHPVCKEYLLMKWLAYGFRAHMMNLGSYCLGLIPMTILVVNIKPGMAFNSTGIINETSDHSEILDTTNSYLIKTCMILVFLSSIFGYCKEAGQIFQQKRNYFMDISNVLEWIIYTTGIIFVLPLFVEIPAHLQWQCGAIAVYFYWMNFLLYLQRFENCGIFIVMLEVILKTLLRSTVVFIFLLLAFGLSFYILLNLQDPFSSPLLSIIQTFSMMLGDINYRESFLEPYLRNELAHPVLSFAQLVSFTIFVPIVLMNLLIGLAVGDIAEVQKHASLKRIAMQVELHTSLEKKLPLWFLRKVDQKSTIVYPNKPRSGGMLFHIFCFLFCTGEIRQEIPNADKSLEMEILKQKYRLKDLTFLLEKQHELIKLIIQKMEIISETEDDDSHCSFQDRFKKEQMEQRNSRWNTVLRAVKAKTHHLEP

Compound	Block of L-Menthol activation of TRPA1 [1, 4]	Average Ca2+ Counts [2, 5] [Counts]	inhibition at 100 µM [2] [%]	also measured
CC(=O)OCC1=CCC2C[C@@H]1C2(C)C	BLOCK ONLY MENTHOL/TRPA1	–	–	–
COC(C=C(C)CCC=C(C)C)OC (mixture of isomers)	BLOCK ONLY MENTHOL/TRPA1	–	–	–
CC(C)=CCCC(C)CCO (racemic) [(+−)-beta; -Citronellol]	BLOCK ONLY MENTHOL/TRPA1	–	–	–
COc1ccc(OC)cc1 [1,4-dimethoxybenzene]	BLOCK ONLY MENTHOL/TRPA1	3633.0	43.2	–
Cc1ccc(C(C)C)cc1 [1-isopropyl-4-methylbenzene]	BLOCK ONLY MENTHOL/TRPA1	1112.7	40.5	–
CCCCCCCCO [1-octanol]	BLOCK ONLY MENTHOL/TRPA1	1442.3	25.2	–
CCC(O)c1ccccc1 (centres unmarked) [1-phenyl 1-propanol]	BLOCK ONLY MENTHOL/TRPA1	–	–	–
Cc1nc(C)c(C)nc1C [2,3,5,6-tetramethylpyrazine]	BLOCK ONLY MENTHOL/TRPA1	972.0	47	–
Cc1ccc(C)c(O)c1C [2,3,6-trimethylphenol]	BLOCK ONLY MENTHOL/TRPA1	1339.3	30	–
Cc1cnc(C)cn1 [2,5-dimethylpyrazine]	BLOCK ONLY MENTHOL/TRPA1	1040.0	43.8	–
CCCOC(C)OCCc1ccccc1 (centres unmarked) [2-(1-propoxyethoxy)ethylbenzene]	BLOCK ONLY MENTHOL/TRPA1	1480.7	23.4	–
C=CC1(C)CCC(C(=C)C)O1 (centres unmarked) [2-Isopropenyl-5-Methyl-5-Vinyltetrahydrofuran]	BLOCK ONLY MENTHOL/TRPA1	–	–	–
CC(=O)c1nccs1 [2-acetylthiazole]	BLOCK ONLY MENTHOL/TRPA1	3569.5	23.1	–
O=C(Nc1ccccc1C(=O)O)c1ccccc1 [2-benzoylamino-benzoic acid]	BLOCK ONLY MENTHOL/TRPA1	1207.7	36.1	–
CCc1nccnc1OC [2-ethyl-3-methoxypyrazine]	BLOCK ONLY MENTHOL/TRPA1	1432.7	25.7	–
COc1ccccc1C=O [2-methoxybenzaldehyde]	BLOCK ONLY MENTHOL/TRPA1	1050.3	43.3	–
COc1ccccc1C(=O)O [2-methoxybenzoic acid]	BLOCK ONLY MENTHOL/TRPA1	1441.7	25.2	–
CC1OCCC1=O (centres unmarked) [2-methyltetrahydro-3-furanone]	BLOCK ONLY MENTHOL/TRPA1	993.7	46	–
CCC(C)C1CCCCC1=O (centres unmarked) [2-sec-butylcyclohexanone]	BLOCK ONLY MENTHOL/TRPA1	–	–	–
CC(=O)c1ccccc1O [2′-hydroxyacetophenone]	BLOCK ONLY MENTHOL/TRPA1	1083.3	41.8	–
O=C(O)c1ccc(O)c(O)c1 [3,4-dihydroxybenzoic acid]	BLOCK ONLY MENTHOL/TRPA1	1539.7	20.7	–
CC(=O)OCCC(C)S (centres unmarked) [3-mercaptobutyl acetate]	BLOCK ONLY MENTHOL/TRPA1	1061.3	42.8	–
CSC(C)C(C)=O (centres unmarked) [3-methylthio-2-butanone]	BLOCK ONLY MENTHOL/TRPA1	1554.0	20	–
O=C(C=Cc1ccccc1)OCC=Cc1ccccc1 [3-phenyl-2-propen-1-yl 3-phenylacrylate]	BLOCK ONLY MENTHOL/TRPA1	3377.0	47.2	–
COc1ccc(COC=O)cc1 [4-methoxybenzyl formate]	BLOCK ONLY MENTHOL/TRPA1	1399.0	27.2	–
CC(C)CC(=O)Cc1ccccc1 [4-methyl-1-phenyl-2-pentanone]	BLOCK ONLY MENTHOL/TRPA1	2707.0	32.9	–

Compound	Block of L-Menthol activation of TRPA1 [1, 4]	Average Ca2+ Counts [2, 5] [Counts]	inhibition at 100 µM [2] [%]	also measured
COc1cc(C)cc(OC)c1O [4-methyl-2,6-dimethoxyphenol]	BLOCK ONLY MENTHOL/TRPA1	1292.3	32.1	–
C=Cc1scnc1C [4-methyl-5-vinylthiazole]	BLOCK ONLY MENTHOL/TRPA1	1227.7	35.1	–
CC(=O)C(=O)CC(C)C [5-methyl-2,3-hexanedione]	BLOCK ONLY MENTHOL/TRPA1	2968.5	26.4	–
CC1(C)C2CC[C@@]1(C)C(=O)C2 [(1r)-(+)-camphor]	BLOCK ONLY MENTHOL/TRPA1	2807.0	30.5	–
O=C1O[C@H]([C@@H](O)CO)C([O-])=C1O.[Na+] [(+)-Sodium L-ascorbate]	BLOCK ONLY MENTHOL/TRPA1	–	–	–
C/C=C(/C)C(=O)OCC(C)C [Angelic Acid Isobutyl Ester]	BLOCK ONLY MENTHOL/TRPA1	–	–	–
CC(=O)CCC=C(C)CCC=C(C)CCC=C(C)C [Farnesylacetone]	BLOCK ONLY MENTHOL/TRPA1	–	–	–
CCCCCCCC/C=C\CCCCCCCC(=O)O [Oleic acid]	BLOCK ONLY MENTHOL/TRPA1	–	–	–
CCCCCCCCCCCCC(=O)O [Tridecanoic acid]	BLOCK ONLY MENTHOL/TRPA1	–	–	–
C=CCOC(=O)CCCCCCC [allyl caprylate]	BLOCK ONLY MENTHOL/TRPA1	2572.0	44.6	–
O=COCc1ccccc1 [benzyl formate]	BLOCK ONLY MENTHOL/TRPA1	2923.5	27.6	–
C=C1CC/C=C(\C)CC[C@@H]2[C@@H]1CC2(C)C [beta-caryophyllene]	BLOCK ONLY MENTHOL/TRPA1	2744.5	–	% Reduction of L-Menthol TRPV1 Activation [2, 5]: 32.0%
O=C(O)c1ccc(O)cc1O [beta-resorcylic acid]	BLOCK ONLY MENTHOL/TRPA1	1317.3	31	–
C[N+](C)(C)CCO.O=C([O-])C(O)C(O)C(=O)O (centres unmarked) [choline bitartrate]	–	–	–	Block of L-Menthol activation of TRPA1 [1]: BLOCK ONLY MENTHOL/TRPA1; % Reduction of L-Menthol TRPV1 Activation [2]: 39.1%; Average Ca2+ Counts [2]: 1141.3 Counts
CC/C=C\CCOC(=O)CCC [cis-3-hexenyl butyrate]	BLOCK ONLY MENTHOL/TRPA1	2987.5	26	–
CCCC/C=C\CCO [cis-3-octen-1-ol]	BLOCK ONLY MENTHOL/TRPA1	1424.7	26	–
CC(C)=CCCC(C)CCOC=O (centres unmarked) [citronellyl formate]	BLOCK ONLY MENTHOL/TRPA1	1097.0	41.2	–
C=CCSCC=C [diallyl sulfide]	BLOCK ONLY MENTHOL/TRPA1	1293.3	32.1	–
CCCCOC(=O)CCCCCCCCC(=O)OCCCC [dibutyl sebacate]	BLOCK ONLY MENTHOL/TRPA1	1398.0	27.3	–
O=C(O)CN(CCN(CC(=O)O)CC(=O)O)CC(=O)O [edta]	–	–	–	Block of L-Menthol activation of TRPA1 [1]: BLOCK ONLY MENTHOL/TRPA1; % Reduction of L-Menthol TRPV1 Activation [2]: 34.8%; Average Ca2+ Counts [2]: 1236.0 Counts
CCOC(=O)C(=O)CC(=O)CC [ethyl 2,4-dioxohexanoate]	BLOCK ONLY MENTHOL/TRPA1	1000.3	45.7	–
CCOC(=O)C(Cc1ccccc1)C(C)=O (centres unmarked) [ethyl 2-benzylacetoacetate]	BLOCK ONLY MENTHOL/TRPA1	1548.3	20.3	–
CCOC(=O)CCc1ccco1 [ethyl 3-(2-furyl)propionate]	BLOCK ONLY MENTHOL/TRPA1	4446.5	30.5	–
OCc1ccco1 [furfuryl alcohol]	BLOCK BOTH MENTHOL AND H2O2 ON TRPA1	–	–	Average Ca++ Counts [3]: 5585.5 Counts; Block of hydrogen peroxide activation of TRPA1 [3]: BLOCK BOTH MENTHOL AND H2O2 ON TRPA1; inhibition at 100 µM ([3]; read-out: % Reduction of Hydrogen Peroxide TRPA1 Activation): 47.3%
CCCCC/C=C/C=C/C=O [trans,trans-2,4-Decadienal]	BLOCK ONLY MENTHOL/TRPA1	–	–	–
O=C/C=C/c1ccccc1 [trans-Cinnamaldehyde]	BLOCK ONLY MENTHOL/TRPA1	–	–	–

From US20130315843A1, “COMPOSITION FOR REDUCTION OF TRPA1 AND TRPV1 SENSATIONS” (priority 2012, published 2013)
